Structures can show the parent of a compound that is named as a salt. Where two headings read alike, the source gives them in different places.
What was measured:
[1] = Stability test of BTG 1640 salts: purity under preservation conditions; format: physicochemical
Method: Samples of 100 mg each of BTG 1640 hydrochloride were subjected to the following preservation conditions:
The purities were then analyzed periodically, initially every three months, in order to underline possible variations.
Samples of 100 mg each of BTG 1640 fumarate prepared according to example 1C were subjected to the following preservation conditions:
Quarterly and in an overall period of nine months its purity was then analyzed in order to underline possible variations. The results in the following Table 3 were obtained:
As comparison other salts of BTG 1640 were prepared, and exactly: • BTG 1640 methanesulphonate • BTG 1640 maleate • BTG 1640 succinate following the procedure indicated in example 1 and substituting methanesolphonic, maleic and succinic acids for fumaric acid.
The stabilities were then evaluated by subjecting samples of 100 mg of each salt to the following analogous preservation conditions:
Quarterly and in an overall period of nine months their purity was then analyzed in order to underline possible variations.
The obtained results, together with those obtained in Example 2 for hydrochloride, in Example 3 for fumarate in order to make easier the comparison, were in Table 5 and represented in FIGS. 5-8.

[2] = Stability test of BTG 1640 salts: evaluation of total impurities; format: physicochemical
Method: Contemporaneously, the impurity analysis in the conditions a)-d) of T/% RH were carried out.
As a confirmation of such evidence, a test for the evaluation of the impurity percentage of the sample subjected to the same conditions a)-d) of T/% RH was parallely carried out. The experimental values in Table 4 were obtained.

[3] = Absorption kinetic: plasma concentration of BTG 1640 after oral gavage; format: in vivo, rats Sprague Dawley; settings: rat, in vivo, po, 10 mg/kg
Method: Absorption extent and rate of molecule BTG 1640 in its forms of fumarate and hydrochloride salts were evaluated.
With this intent, the two salts were dispersed in an aqueous suspension of arabic gum at 5% thus obtaining two formulations, each one orally administered through oesophageous gavage at dose of 10 mg/kg (expressed as free base of BTG 1640) to five rats Sprague Dawley.
Plasma concentration of molecule BTG 1640 was determined at different time points.

female CD-1 mice = experiment: Acute oral toxicity; format: in vivo
Method: Acute oral toxicity of salts hydrochloride and fumarate of BTG-1640 was evaluated.
The two salts were dispersed in an aqueous suspension, thus obtaining two formulations, each one orally administered through oesophageous gavage at dose of 2000 mg/kg bw (expressed as free base of BTG 1640) to one of two groups comprising three female CD-1 mice per group.
The observation lasted 14 days.

[4] = T = 25° C., humidity 60% RH, time 0
[5] = T = 25° C., humidity 60% RH, time 3 (months)
[6] = T = 25° C., humidity 60% RH, time 6 (months)
[7] = T = 25° C., humidity 60% RH, time 9 (months)
[8] = T = 30° C., humidity 65% RH, time 0
[9] = T = 30° C., humidity 65% RH, time 3 (months)
[10] = T = 30° C., humidity 65% RH, time 6 (months)
[11] = T = 30° C., humidity 65% RH, time 9 (months)
[12] = T = 40° C., humidity 75% RH, time 0
[13] = T = 40° C., humidity 75% RH, time 3 (months)
[14] = T = 40° C., humidity 75% RH, time 6 (months)
[15] = female CD-1 mice, oral gavage 2000 mg/kg bw

For CN1OC2CCCC(=O)C2C1Cc1ccccc1 [BTG 1640 fumarate, fumarate salt of rel-(3R,3aS,7aS)-3-benzyl-2-methyl-2,3,3a,4,5,6,7,7a-octahydrobenzo[d]isoxazol-4-one], the “Stability compared with BTG 1640 hydrochloride” value [1] was “higher stability”, the Purity % ([1]; T = 5° C., time 0) was 99.5% and the Purity % ([1]; T = 5° C., time 3 (months)) was 100.0%. It also gave a Purity % ([1]; T = 5° C., time 6 (months)) of 100.0%, a Purity % ([1]; T = 5° C., time 9 (months)) of 99.9% and a Purity % [1, 4] of 99.5%. It also gave a Purity % [1, 5] of 100.0%, a Purity % [1, 6] of 100.0% and a Purity % [1, 7] of 99.9%. It also gave a Purity % [1, 8] of 99.5%, a Purity % [1, 9] of 100.0% and a Purity % [1, 10] of 100.0%. For the same compound, the Purity % [1, 11] was 99.9%, the Purity % [1, 12] was 99.5% and the Purity % [1, 13] was 100.0%. For the same compound, the Purity % [1, 14] was 100.0%, the “% impurities” value ([2]; T = 5° C., time 0) was 0.49% and the “% impurities” value ([2]; T = 5° C., time 3 (months)) was 0.10%. For the same compound, the “% impurities” value ([2]; T = 5° C., time 6 (months)) was 0.10%, the “% impurities” value ([2]; T = 5° C., time 9 (months)) was 0.10% and the “% impurities” value [2, 4] was 0.49%. For the same compound, the “% impurities” value [2, 5] was 0.10%, the “% impurities” value [2, 6] was 0.10% and the “% impurities” value [2, 7] was 0.10%. For the same compound, the “% impurities” value [2, 8] was 0.49%, the “% impurities” value [2, 9] was 0.10% and the “% impurities” value [2, 10] was 0.10%. The “% impurities” value [2, 11] was 0.10%, the “% impurities” value [2, 12] was 0.49% and the “% impurities” value [2, 13] was 0.10%. For the same compound, the “% impurities” value [2, 14] was 0.10%, the “Impurities (in words)” value ([2]; condition d): 40° C./75% RH) was “invariable impurity profile” and the concentration at 2 min ([3]; Sprague Dawley) was 1070 ng/mL. It also gave a concentration at 5 min ([3]; Sprague Dawley) of 2350 ng/mL, a concentration at 30 min ([3]; Sprague Dawley) of 838 ng/mL and a concentration at 90 min ([3]; Sprague Dawley) of 0 ng/mL. The concentration at 300 min ([3]; Sprague Dawley) was 0 ng/mL, the “Plasma concentration of free BTG 1640 with respect to hydrochloride” value [3] was “not significantly higher” and the “availability of the active principle in the circulation” value [3] was “more favourable”. For the same compound, the Clinical signs (female CD-1 mice; [15]) was “quickly reversible neurological signs”, the “Histopathological examination of kidneys” value (female CD-1 mice; [15]) was “only a mild dilatation of convoluted tubules” and the “Toxicity compared with hydrochloride” value (female CD-1 mice; female mice, 2000 mg/kg bw) was “strongly less toxic”.

CN1OC2CCCC(=O)C2C1Cc1ccccc1.O=C(O)/C=C\C(=O)O (stereo not shown) [BTG 1640 maleate] gave a Purity % ([1]; T = 5° C., time 0) of 99.8%, a Purity % ([1]; T = 5° C., time 3 (months)) of 100.0% and a Purity % ([1]; T = 5° C., time 6 (months)) of 100.0%. The Purity % ([1]; T = 5° C., time 9 (months)) was 99.8%, the Purity % [1, 4] was 99.8% and the Purity % [1, 5] was 99.8%. The Purity % [1, 6] was 100.0%, the Purity % [1, 7] was 99.7% and the Purity % [1, 8] was 99.8%. The Purity % [1, 9] was 99.5%, the Purity % [1, 10] was 98.9% and the Purity % [1, 11] was 95.9%. The Purity % [1, 12] was 99.8%, the Purity % [1, 13] was 24.4% and the “Degradation (in words)” value ([1]; condition c) 30° C./65% RH, at sixth month) was “considerable degradation”. The “Stability (in words)” value ([1]; condition d): 40° C. and 75% RH) was “degrades in unacceptable way”, the “Stability profile (in words)” value ([1]; conditions a) and b)) was “acceptable profile” and the “Stability compared with BTG 1640 hydrochloride” value ([1]; conditions a)-d)) was “even worse”. For the same compound, the “% impurities” value ([2]; T = 5° C., time 0) was 0.23%, the “% impurities” value ([2]; T = 5° C., time 3 (months)) was 0.10% and the “% impurities” value ([2]; T = 5° C., time 6 (months)) was 0.10%. For the same compound, the “% impurities” value ([2]; T = 5° C., time 9 (months)) was 0.19%, the “% impurities” value [2, 4] was 0.23% and the “% impurities” value [2, 5] was 0.22%. For the same compound, the “% impurities” value [2, 6] was 0.10%, the “% impurities” value [2, 7] was 0.29% and the “% impurities” value [2, 8] was 0.23%. The “% impurities” value [2, 9] was 0.49%, the “% impurities” value [2, 10] was 1.10% and the “% impurities” value [2, 11] was 4.20%. For the same compound, the “% impurities” value [2, 12] was 0.23% and the “% impurities” value [2, 13] was 75.60%.

Compound CN1OC2CCCC(=O)C2C1Cc1ccccc1.CS(=O)(=O)O (stereo not shown) [BTG 1640 methanesulphonate] has a Purity % ([1]; T = 5° C., time 0) of 99.6%, a Purity % ([1]; T = 5° C., time 3 (months)) of 99.5% and a Purity % ([1]; T = 5° C., time 6 (months)) of 99.3%. For the same compound, the Purity % ([1]; T = 5° C., time 9 (months)) was 99.1%, the Purity % [1, 4] was 99.6% and the Purity % [1, 5] was 98.2%. For the same compound, the Purity % [1, 6] was 97.1%, the Purity % [1, 7] was 95.0% and the Purity % [1, 8] was 99.6%. For the same compound, the Purity % [1, 9] was 96.0%, the Purity % [1, 10] was 86.8% and the Purity % [1, 11] was 74.2%. The Purity % [1, 12] was 99.6%, the Purity % [1, 13] was 81.5% and the Purity % [1, 14] was 5.7%. For the same compound, the “Stability compared with BTG 1640 hydrochloride” value ([1]; conditions a)-d)) was “even worse”, the “Degradation (in words)” value ([1]; conditions b)-d)) was “begins to degrade already after three months” and the “% impurities” value ([2]; T = 5° C., time 0) was 0.42%. The “% impurities” value ([2]; T = 5° C., time 3 (months)) was 0.55%, the “% impurities” value ([2]; T = 5° C., time 6 (months)) was 0.74% and the “% impurities” value ([2]; T = 5° C., time 9 (months)) was 0.91%. For the same compound, the “% impurities” value [2, 4] was 0.42%, the “% impurities” value [2, 5] was 1.80% and the “% impurities” value [2, 6] was 2.90%. For the same compound, the “% impurities” value [2, 7] was 5.00%, the “% impurities” value [2, 8] was 0.42% and the “% impurities” value [2, 9] was 4.00%. The “% impurities” value [2, 10] was 13.20%, the “% impurities” value [2, 11] was 25.80% and the “% impurities” value [2, 12] was 0.42%. For the same compound, the “% impurities” value [2, 13] was 18.50% and the “% impurities” value [2, 14] was 94.30%.

CN1OC2CCCC(=O)C2C1Cc1ccccc1.O=C(O)CCC(=O)O (stereo not shown) [BTG 1640 succinate] showed a Purity % ([1]; T = 5° C., time 0) of 99.2%, a Purity % ([1]; T = 5° C., time 3 (months)) of 98.0% and a Purity % ([1]; T = 5° C., time 6 (months)) of 98.1%. The Purity % ([1]; T = 5° C., time 9 (months)) was 96.8%, the Purity % [1, 4] was 99.2% and the Purity % [1, 5] was 92.7%. The Purity % [1, 6] was 87.0%, the Purity % [1, 7] was 90.5% and the Purity % [1, 8] was 99.2%. For the same compound, the Purity % [1, 9] was 85.4%, the Purity % [1, 10] was 71.5% and the Purity % [1, 11] was 66.8%. For the same compound, the Purity % [1, 12] was 99.2%, the Purity % [1, 13] was 16.5% and the “Stability compared with BTG 1640 hydrochloride” value ([1]; conditions a)-d)) was “even worse”. The “Degradation (in words)” value ([1]; conditions a)-d), from the third month) was “shows degradation at all observation conditions”, the “% impurities” value ([2]; T = 5° C., time 0) was 0.77% and the “% impurities” value ([2]; T = 5° C., time 3 (months)) was 2.00%. The “% impurities” value ([2]; T = 5° C., time 6 (months)) was 1.90%, the “% impurities” value ([2]; T = 5° C., time 9 (months)) was 3.20% and the “% impurities” value [2, 4] was 0.77%. For the same compound, the “% impurities” value [2, 5] was 7.30%, the “% impurities” value [2, 6] was 13.00% and the “% impurities” value [2, 7] was 9.50%. The “% impurities” value [2, 8] was 0.77%, the “% impurities” value [2, 9] was 14.60% and the “% impurities” value [2, 10] was 28.50%. For the same compound, the “% impurities” value [2, 11] was 33.30%, the “% impurities” value [2, 12] was 0.77% and the “% impurities” value [2, 13] was 83.50%.

From patent US20100069450A1, “SALT OF 3-BENZYL-2-METHYL-2,3,3A,4,5,6,7, 7A- OCTAHYDROBENZO[D]ISOXAZOL-4-ONE” (ABIOGEN PHARMA S.P.A, priority 2006, published 2010)
